The values that follow come from ChEMBL document CHEMBL3862025, “Novel substituted hydrazono indolo[2,1-b]quinazoline-6,12-dione analogues as cytostatic agents: Synthesis, crystal structure, biological evaluation and molecular docking studies” (Bioorg Med Chem Lett, 2016).

Molecules are shown by their SMILES. pIC50: −log10 of the molar value. In brackets after ≈: the same amount, converted by molar mass. Where only a bound is given, the exact number is not on record here.

One test concerns Escherichia coli. Kind of test: Antibacterial activity against Escherichia coli after 24 hrs by broth dilution method. In kind it is functional.
A short description of test [1]: Antifungal activity against Penicillium notatum by agar streak dilution method. In kind it is functional. To be noted: Penicillium chrysogenum.
Test [2] in a line: Cytotoxicity against human A549 cells assessed as inhibition of cell viability after 48 hrs by MTT assay. Type of test: functional, cell-based. Conditions: A549, 48 h. On the technique in general: Tetrazolium dyes change colour on reduction, which living cells bring about.
The test system of another test is Klebsiella pneumoniae. Briefly: Antibacterial activity against Klebsiella pneumoniae after 24 hrs by broth dilution method. In kind it is functional. A general note: Broth dilution looks for growth in wells or tubes with falling amounts of substance.
The test system of another test is Bacillus subtilis. Briefly: Antibacterial activity against Bacillus subtilis after 24 hrs by broth dilution method. In kind it is functional.
Test [3] in a line: Cytotoxicity against human MCF7 cells assessed as inhibition of cell viability after 48 hrs by MTT assay. Type of test: functional, cell-based. Conditions: MCF7, 48 h.
For a further test, the system named is Aspergillus niger. Kind of test: Antifungal activity against Aspergillus niger by agar streak dilution method. Type of test: functional.
Another test has as its system Staphylococcus aureus. Briefly: Antibacterial activity against Staphylococcus aureus after 24 hrs by broth dilution method. In kind it is functional.
Test [4] can be described thus: Cytotoxicity against human HeLa cells assessed as inhibition of cell viability after 48 hrs by MTT assay. Type of test: functional, cell-based.

The MIC is the lowest concentration found to suppress growth. A low value points to inhibition by little substance. As usually defined, the pIC50 is −log10 of the IC50, conventionally taken in molar units. On to `O=c1c2ccccc2nc2n1-c1ccccc1/C2=N/N=C1/C=C(O)c2ccccc21`, for which the MIC in the test with Escherichia coli was 12.5 µg/mL (≈ 32 µM); in test [1] it was 12.5 µg/mL (≈ 32 µM); in the test on Klebsiella pneumoniae it was 1.56 µg/mL (≈ 4 µM); in the test with Bacillus subtilis, 6.25 µg/mL (≈ 16 µM); in the test on Aspergillus niger, 6.25 µg/mL (≈ 16 µM); in the test with Staphylococcus aureus it was 3.12 µg/mL (≈ 8 µM). The pIC50 in test [2] was 4.25; in test [3], 4.30; in test [4], 4.31.
In the case of `CC(O)=CC(C)=N/N=C1/c2cc(Br)ccc2-n2c1nc1ccccc1c2=O`, the MIC is 50 µg/mL (≈ 118 µM) in the test with Escherichia coli; more than 100 µg/mL in test [1]; more than 100 µg/mL with Klebsiella pneumoniae; 50 µg/mL (≈ 118 µM) with Bacillus subtilis; more than 100 µg/mL in the test on Aspergillus niger; 50 µg/mL (≈ 118 µM) against Staphylococcus aureus. For the same compound, the values for the negative-log IC50 (pIC50) in test [2], in test [3] and in [4] were 4.51, 4.48 and 4.51, respectively.
In the case of `COc1ccc2c(c1)/C(=N/N=C(C)C=C(O)c1ccccc1)c1nc3ccccc3c(=O)n1-2`, the MIC with Escherichia coli is more than 100 µg/mL; in test [1] it was 50 µg/mL (≈ 115 µM); with Klebsiella pneumoniae, more than 100 µg/mL; against Bacillus subtilis, more than 100 µg/mL; in the test on Aspergillus niger, 25 µg/mL (≈ 57.3 µM); in the test on Staphylococcus aureus, more than 100 µg/mL. Also, the pIC50 in [2] was 4.53; in [3], 4.51; in test [4], 4.47.
For `COc1ccc2c(c1)/C(=N/N=C1/C=C(O)CCC1)c1nc3ccccc3c(=O)n1-2`, the minimum inhibitory concentration (MIC) was found to be 12.5 µg/mL (≈ 32.3 µM) in the test with Escherichia coli; 12.5 µg/mL (≈ 32.3 µM) in [1]; 6.25 µg/mL (≈ 16.2 µM) in the test with Klebsiella pneumoniae; 6.25 µg/mL (≈ 16.2 µM) with Bacillus subtilis; 100 µg/mL (≈ 259 µM) against Aspergillus niger; 3.12 µg/mL (≈ 8.09 µM) against Staphylococcus aureus. In addition, the pIC50 in test [2] was 4.44; in test [3] it was 4.49; in [4], 4.49.
As to `CCO/C(O)=C/C(C)=N/N=C1/c2cc(OC)ccc2-n2c1nc1ccccc1c2=O`, the MIC came out at 12.5 µg/mL (≈ 30.9 µM) against Escherichia coli; 50 µg/mL (≈ 124 µM) in [1]; 3.12 µg/mL (≈ 7.73 µM) in the test with Klebsiella pneumoniae; 6.25 µg/mL (≈ 15.5 µM) with Bacillus subtilis; 50 µg/mL (≈ 124 µM) in the test on Aspergillus niger; 6.25 µg/mL (≈ 15.5 µM) in the test with Staphylococcus aureus. Moreover, the negative logarithm of the IC50 (pIC50) in test [2] is 4.25; in test [3], 4.26; in test [4], 4.23.
With `CCO/C(O)=C/C(C)=N/N=C1/c2ccccc2-n2c1nc1ccccc1c2=O`, the MIC in the test with Escherichia coli worked out at 12.5 µg/mL (≈ 33.4 µM); in [1] it was 25 µg/mL (≈ 66.8 µM); in the test with Klebsiella pneumoniae, 12.5 µg/mL (≈ 33.4 µM); in the test with Bacillus subtilis, 6.25 µg/mL (≈ 16.7 µM); against Aspergillus niger, 12.5 µg/mL (≈ 33.4 µM); in the test on Staphylococcus aureus it was 6.25 µg/mL (≈ 16.7 µM). For the same compound, the negative-log IC50 (pIC50) is 4.29 in test [2], 4.30 in test [3] and 4.37 in test [4].
As for `O=c1c2ccccc2nc2n1-c1ccc(Br)cc1/C2=N/N=C1/C=C(O)CCC1`, the MIC against Escherichia coli turned out to be 12.5 µg/mL (≈ 28.7 µM); in test [1], 6.25 µg/mL (≈ 14.4 µM); against Klebsiella pneumoniae, 6.25 µg/mL (≈ 14.4 µM); with Bacillus subtilis, 3.12 µg/mL (≈ 7.18 µM); in the test with Aspergillus niger it was 6.25 µg/mL (≈ 14.4 µM); against Staphylococcus aureus, 6.25 µg/mL (≈ 14.4 µM). Besides, the pIC50 in test [2] was 4.38; in test [3], 4.36; in test [4], 4.45.
For `COc1ccc2c(c1)/C(=N/N=C1/C=C(O)c3ccccc31)c1nc3ccccc3c(=O)n1-2`, the MIC was determined as 6.25 µg/mL (≈ 14.9 µM) with Escherichia coli; 50 µg/mL (≈ 119 µM) in test [1]; 12.5 µg/mL (≈ 29.7 µM) against Klebsiella pneumoniae; 3.12 µg/mL (≈ 7.43 µM) against Bacillus subtilis; 50 µg/mL (≈ 119 µM) against Aspergillus niger; 1.56 µg/mL (≈ 3.72 µM) against Staphylococcus aureus. The pIC50 in test [2] is 4.20; in test [3] it was 4.22; in test [4], 4.21.
Regarding `O=c1c2ccccc2nc2n1-c1ccccc1/C2=N/N=C1/C=C(O)CCC1`, the minimal inhibitory concentration (MIC) was 6.25 µg/mL (≈ 17.5 µM) in the test with Escherichia coli; 25 µg/mL (≈ 70.1 µM) in [1]; 12.5 µg/mL (≈ 35.1 µM) in the test with Klebsiella pneumoniae; 3.12 µg/mL (≈ 8.77 µM) in the test with Bacillus subtilis; 12.5 µg/mL (≈ 35.1 µM) against Aspergillus niger; 6.25 µg/mL (≈ 17.5 µM) in the test with Staphylococcus aureus. Further, the pIC50 in test [2] was 4.53; in [3], 4.55; in test [4], 4.62.
On to `CC1(C)CC(O)=C/C(=N/N=C2/c3cc(Br)ccc3-n3c2nc2ccccc2c3=O)C1`, for which the MIC with Escherichia coli was more than 100 µg/mL; in test [1] it was more than 100 µg/mL; in the test with Klebsiella pneumoniae, more than 100 µg/mL; with Bacillus subtilis, more than 100 µg/mL; with Aspergillus niger, 100 µg/mL (≈ 216 µM); against Staphylococcus aureus, more than 100 µg/mL. The pIC50 was 4.33 in test [2], 4.40 in test [3] and 4.40 in test [4].
In the case of `COc1ccc2c(c1)/C(=N/N=C(C)C=C(C)O)c1nc3ccccc3c(=O)n1-2`, the minimal inhibitory concentration (MIC) was 50 µg/mL (≈ 134 µM) against Escherichia coli; 100 µg/mL (≈ 267 µM) in [1]; 50 µg/mL (≈ 134 µM) against Klebsiella pneumoniae; 50 µg/mL (≈ 134 µM) with Bacillus subtilis; more than 100 µg/mL in the test on Aspergillus niger; 12.5 µg/mL (≈ 33.4 µM) in the test on Staphylococcus aureus. Besides, the pIC50 was 4.33 in [2], 4.32 in test [3] and 4.31 in [4].
In the case of `COc1ccc2c(c1)/C(=N/N)c1nc3ccccc3c(=O)n1-2`, the minimal inhibitory concentration (MIC) against Escherichia coli is more than 100 µg/mL; in test [1] it was 50 µg/mL (≈ 171 µM); with Klebsiella pneumoniae, more than 100 µg/mL; against Bacillus subtilis it was more than 100 µg/mL; against Aspergillus niger it was more than 100 µg/mL; in the test on Staphylococcus aureus, more than 100 µg/mL. Further, the negative-log IC50 (pIC50) was 4.51 in test [2], 4.49 in test [3] and 4.53 in test [4].
Take `COc1ccc2c(c1)/C(=N/N=C1/C=C(O)CC(C)(C)C1)c1nc3ccccc3c(=O)n1-2`: the minimum inhibitory concentration (MIC) in the test with Escherichia coli is more than 100 µg/mL; in [1] it was more than 100 µg/mL; with Klebsiella pneumoniae it was more than 100 µg/mL; in the test on Bacillus subtilis it was more than 100 µg/mL; against Aspergillus niger, 100 µg/mL (≈ 241 µM); in the test with Staphylococcus aureus, more than 100 µg/mL. In addition, the negative-log IC50 (pIC50) in test [2] was 4.17; in test [3] it was 4.16; in test [4] it was 4.24.
On to `C/C(O)=C/C(C)=N/N=C1/c2ccccc2-n2c1nc1ccccc1c2=O`, for which the MIC against Escherichia coli was 50 µg/mL (≈ 145 µM); in [1] it was more than 100 µg/mL; against Klebsiella pneumoniae it was 12.5 µg/mL (≈ 36.3 µM); in the test with Bacillus subtilis, 25 µg/mL (≈ 72.6 µM); in the test with Aspergillus niger it was more than 100 µg/mL; in the test on Staphylococcus aureus it was 25 µg/mL (≈ 72.6 µM). Also, the values for the negative-log IC50 (pIC50) in [2], in [3] and in [4] were 4.36, 4.38 and 4.35, respectively.
`CC1(C)CC(O)=C/C(=N/N=C2/c3ccccc3-n3c2nc2ccccc2c3=O)C1`: the minimal inhibitory concentration (MIC) with Escherichia coli was 50 µg/mL (≈ 130 µM); in test [1], 100 µg/mL (≈ 260 µM); against Klebsiella pneumoniae, 12.5 µg/mL (≈ 32.5 µM); against Bacillus subtilis it was 50 µg/mL (≈ 130 µM); in the test with Aspergillus niger it was 100 µg/mL (≈ 260 µM); against Staphylococcus aureus, 50 µg/mL (≈ 130 µM). Moreover, the pIC50 in test [2] is 4.18; in [3] it was 4.16; in test [4], 4.23.
As to `CC(O)=CC(C)=N/N=C1/c2cc(C)cc(C)c2-n2c1nc1ccccc1c2=O`, the MIC with Escherichia coli is 25 µg/mL (≈ 67.1 µM); in [1], 100 µg/mL (≈ 269 µM); with Klebsiella pneumoniae it was 6.25 µg/mL (≈ 16.8 µM); in the test with Bacillus subtilis, 12.5 µg/mL (≈ 33.6 µM); with Aspergillus niger, 100 µg/mL (≈ 269 µM); in the test with Staphylococcus aureus it was 12.5 µg/mL (≈ 33.6 µM). Moreover, the results for the pIC50 in test [2], in test [3] and in [4] were 4.33, 4.35 and 4.38, respectively.
As for `CC(=O)N1CCN(c2ccc(OCC3COC(Cn4ccnc4)(c4ccc(Cl)cc4Cl)O3)cc2)CC1` (stereo not given) [KETOCONAZOLE], the MIC (in test [1]; against Aspergillus niger) was 3.12 µg/mL (≈ 5.88 µM) in each case.
Turning to `CN[C@@H]1[C@H](O[C@H]2[C@H](O[C@H]3[C@H](O)[C@@H](O)[C@H](N=C(N)N)[C@@H](O)[C@@H]3N=C(N)N)O[C@@H](C)[C@]2(O)C=O)O[C@@H](CO)[C@H](O)[C@H]1O` [STREPTOMYCIN], the minimum inhibitory concentration (MIC) against Escherichia coli stood at 6.25 µg/mL (≈ 10.7 µM); in the test on Klebsiella pneumoniae, 1.56 µg/mL (≈ 2.69 µM); in the test on Bacillus subtilis, 3.12 µg/mL (≈ 5.37 µM); in the test with Staphylococcus aureus it was 6.25 µg/mL (≈ 10.7 µM).
